Measured values from patent US20230107598A1, “SORGHUM DOUBLED HAPLOID […]” (PIONEER HI-BRED INTERNATIONAL, INC., priority 2020, published 2023).

Tested on: haploid sorghum plants
Experiment: Chromosome doubling of haploid sorghum plants by root treatment with colchicine
Format: in vivo
Settings: colchicine 0.05%, 5 hours, roots
Description: Plants from diploid sorghum genotypes, “PHI01”, “PHI02”, “PHI03”, “PHI04”, “PHI05”, “PHI06”, “PHI07”, “PHI08”, “PHI09”, “PHI10”, “PHI11”, “PHI12”, “PHI13”, “PHI14”, “PHI15”, “PHI16”, “PHI17”, “PHI18”, “PHI19”, and “PHI20” were pollinated with pollen obtained from pearl millet line PHI01A, as described in Example 2. Immature haploid embryos were isolated, as described in Example 2, 10-20 days after pollination and embryo sizes ranged from 0.1-3 mm long. These haploid embryos were germinated on a medium (see Table 4) in the dark. The germinated haploid embryos were then transferred to fresh media for an additional 7-10 days at 21°−26° C. in the dark until germinated plantlets formed. The germinated plantlets were then transferred to a light culture room and grown at 21°−26° C. for another 2-3 weeks until healthy plantlets having good roots developed. These plantlets were then potted into soil and grown in a regular greenhouse for 5-6 weeks. Upon healthy plant establishment, the roots were treated with a chromosome doubling agent, colchicine, for 5 hours in the dark. Additional chromosome doubling agents for example, pronamide, dithipyr, oryzalin, AMP, and trifluralin, or any of the other chromosome doubling agents referenced in Table 1 can also be used. After treatment with the doubling agent, the roots were then thoroughly rinsed with running water for 30 min, to remove the residual doubling agent and then potted in soil and grown to maturity.

[1] = PHI01/2018, 15 haploid plants treated
[2] = PHI02/2018, 63 haploid plants treated
[3] = PHI02/2019, 17 haploid plants treated
[4] = PHI02/2020, 13 haploid plants treated
[5] = PHI03/2018, 20 haploid plants treated
[6] = PHI04/2018, 9 haploid plants treated
[7] = PHI05/2018, 3 haploid plants treated
[8] = PHI05/2019, 4 haploid plants treated
[9] = PHI05/2020, 1 haploid plant treated
[10] = PHI06/2018, 24 haploid plants treated
[11] = PHI07/2018, 24 haploid plants treated
[12] = PHI08/2018, 2 haploid plants treated
[13] = PHI09/2018, 8 haploid plants treated
[14] = PHI09/2019, 14 haploid plants treated
[15] = PHI09/2020, 10 haploid plants treated
[16] = PHI10/2018, 38 haploid plants treated
[17] = PHI10/2019, 36 haploid plants treated
[18] = PHI10/2020, 25 haploid plants treated
[19] = PHI11/2019, 2 haploid plants treated
[20] = PHI11/2020, 2 haploid plants treated
[21] = PHI12/2019, 8 haploid plants treated
[22] = PHI12/2020, 1 haploid plant treated
[23] = PHI13/2019, 30 haploid plants treated
[24] = PHI13/2020, 18 haploid plants treated
[25] = PHI14/2019, 53 haploid plants treated
[26] = PHI14/2020, 14 haploid plants treated
[27] = PHI15/2019, 15 haploid plants treated
[28] = PHI15/2020, 5 haploid plants treated
[29] = PHI16/2019, 27 haploid plants treated
[30] = PHI17/2020, 4 haploid plants treated
[31] = PHI18/2020, 6 haploid plants treated
[32] = PHI19/2020, 23 haploid plants treated
[33] = PHI20/2020, 9 haploid plants treated
[34] = Sum of all genotypes/years, 543 haploid plants treated

For `COc1cc2c(c(OC)c1OC)-c1ccc(OC)c(=O)cc1[C@@H](NC(C)=O)CC2` [Colchicine, (S)-N-(5,6,7,9-tetrahydro-1,2,3,10-tetramethoxy-9-oxobenzo (a)heptalen-7-yl) acetamide], the “DH Success rate (%)” value [1] was 100%, the “Number of Fully Fertile DH plants” value [1] was 15 and the “Number of plants survived after treatment” value (shortened to “Number of plants survived”) [1] was 15. For the same compound, the “DH Success rate (%)” value [2] was 98%, the “Number of Fully Fertile DH plants” value [2] was 62 and the “Number of plants survived” value [2] was 62. The “DH Success rate (%)” value [3] was 100%, the “Number of Fully Fertile DH plants” value [3] was 17 and the “Number of plants survived” value [3] was 17. The “DH Success rate (%)” value [4] was 100%, the “Number of Fully Fertile DH plants” value [4] was 13 and the “Number of plants survived” value [4] was 13. The “DH Success rate (%)” value [5] was 100%, the “Number of Fully Fertile DH plants” value [5] was 20 and the “Number of plants survived” value [5] was 20. For the same compound, the “DH Success rate (%)” value [6] was 100%, the “Number of Fully Fertile DH plants” value [6] was 9 and the “Number of plants survived” value [6] was 9. For the same compound, the “DH Success rate (%)” value [7] was 100%, the “Number of Fully Fertile DH plants” value [7] was 3 and the “Number of plants survived” value [7] was 3. The “DH Success rate (%)” value [8] was 100%, the “Number of Fully Fertile DH plants” value [8] was 4 and the “Number of plants survived” value [8] was 4. The “DH Success rate (%)” value [9] was 100%, the “Number of Fully Fertile DH plants” value [9] was 1 and the “Number of plants survived” value [9] was 1. For the same compound, the “DH Success rate (%)” value [10] was 100%, the “Number of Fully Fertile DH plants” value [10] was 24 and the “Number of plants survived” value [10] was 24. The “DH Success rate (%)” value [11] was 96%, the “Number of Fully Fertile DH plants” value [11] was 23 and the “Number of plants survived” value [11] was 23. The “DH Success rate (%)” value [12] was 100%, the “Number of Fully Fertile DH plants” value [12] was 2 and the “Number of plants survived” value [12] was 2. For the same compound, the “DH Success rate (%)” value [13] was 100%, the “Number of Fully Fertile DH plants” value [13] was 8 and the “Number of plants survived” value [13] was 8. The “DH Success rate (%)” value [14] was 93%, the “Number of Fully Fertile DH plants” value [14] was 13 and the “Number of plants survived” value [14] was 14. The “DH Success rate (%)” value [15] was 100%, the “Number of Fully Fertile DH plants” value [15] was 10 and the “Number of plants survived” value [15] was 10. For the same compound, the “DH Success rate (%)” value [16] was 100%, the “Number of Fully Fertile DH plants” value [16] was 38 and the “Number of plants survived” value [16] was 38. The “DH Success rate (%)” value [17] was 97%, the “Number of Fully Fertile DH plants” value [17] was 35 and the “Number of plants survived” value [17] was 35. For the same compound, the “DH Success rate (%)” value [18] was 100%, the “Number of Fully Fertile DH plants” value [18] was 25 and the “Number of plants survived” value [18] was 25. The “DH Success rate (%)” value [19] was 100%, the “Number of Fully Fertile DH plants” value [19] was 2 and the “Number of plants survived” value [19] was 2. For the same compound, the “DH Success rate (%)” value [20] was 100%, the “Number of Fully Fertile DH plants” value [20] was 2 and the “Number of plants survived” value [20] was 2. For the same compound, the “DH Success rate (%)” value [21] was 100%, the “Number of Fully Fertile DH plants” value [21] was 8 and the “Number of plants survived” value [21] was 8. For the same compound, the “DH Success rate (%)” value [22] was 100%, the “Number of Fully Fertile DH plants” value [22] was 1 and the “Number of plants survived” value [22] was 1. The “DH Success rate (%)” value [23] was 100%, the “Number of Fully Fertile DH plants” value [23] was 30 and the “Number of plants survived” value [23] was 30. For the same compound, the “DH Success rate (%)” value [24] was 100%, the “Number of Fully Fertile DH plants” value [24] was 18 and the “Number of plants survived” value [24] was 18. For the same compound, the “DH Success rate (%)” value [25] was 98%, the “Number of Fully Fertile DH plants” value [25] was 52 and the “Number of plants survived” value [25] was 52. For the same compound, the “DH Success rate (%)” value [26] was 93%, the “Number of Fully Fertile DH plants” value [26] was 13 and the “Number of plants survived” value [26] was 13. For the same compound, the “DH Success rate (%)” value [27] was 100%, the “Number of Fully Fertile DH plants” value [27] was 15 and the “Number of plants survived” value [27] was 15. For the same compound, the “DH Success rate (%)” value [28] was 100%, the “Number of Fully Fertile DH plants” value [28] was 5 and the “Number of plants survived” value [28] was 5. The “DH Success rate (%)” value [29] was 100%, the “Number of Fully Fertile DH plants” value [29] was 27 and the “Number of plants survived” value [29] was 27. For the same compound, the “DH Success rate (%)” value [30] was 100%, the “Number of Fully Fertile DH plants” value [30] was 4 and the “Number of plants survived” value [30] was 4. For the same compound, the “DH Success rate (%)” value [31] was 100%, the “Number of Fully Fertile DH plants” value [31] was 6 and the “Number of plants survived” value [31] was 6. For the same compound, the “DH Success rate (%)” value [32] was 100%, the “Number of Fully Fertile DH plants” value [32] was 23 and the “Number of plants survived” value [32] was 23. For the same compound, the “DH Success rate (%)” value [33] was 100%, the “Number of Fully Fertile DH plants” value [33] was 9 and the “Number of plants survived” value [33] was 9. The “DH Success rate (%)” value [34] was 99%, the “Number of Fully Fertile DH plants” value [34] was 537 and the “Number of plants survived” value [34] was 538.
